Laboratory results: ChEMBL document CHEMBL1136483, “Synthesis and antiviral evaluation of 3-hydroxy-2-methylpyridin-4-one dideoxynucleoside derivatives” (Bioorg Med Chem Lett, 2003)

Columns and labels:
[1] = system: HEL; test: Compound concentration required to reduce viability of HEL cells; format: functional; conditions: Homo sapiens
[2] = system: HEL; test: Compound was tested for anti-viral activity against HSV-1TK neg in HEL cells; format: functional, cell-based; conditions: Homo sapiens
[3] = system: CCRF-CEM; test: Compound concentration required to reduce viability of CEM cells; format: functional; conditions: Homo sapiens
[4] = system: CCRF-CEM; test: Compound was tested for anti-viral activity against HIV-1 in CEM cells; format: functional, cell-based; conditions: Homo sapiens
[5] = system: CCRF-CEM; test: Compound was tested for anti-viral activity against HIV-2 in CEM cells; format: functional, cell-based; conditions: Homo sapiens
[6] = system: HEL; test: Compound was tested for anti-viral activity against HSV-1(KOS) in HEL cells; format: functional, cell-based; conditions: Homo sapiens
[7] = system: Human herpesvirus 2 (Herpes simplex virus type 2); test: Compound was tested for anti-viral activity against HSV-2(G) in HEL cells

Row | SMILES | CC50 [1] [µM] | EC50 [2] [µM] | CC50 [3] [µM] | EC50 [4] [µM] | EC50 [5] [µM] | EC50 [6] [µM] | EC50 [7] [µM]
1 | Cc1c(O)c(=O)ccn1[C@H]1CS[C@@H](CO)O1 (racemic) | > 100 | 80 | 203 | > 80 | > 80 | 32 | 81
2 | Cc1c(O)c(=O)ccn1[C@@H]1CS[C@@H](CO)O1 (racemic) | > 400 | 95 | 203 | > 80 | > 80 | 40 | 90
3 | Nc1ccn(C[C@@H](CO)OCP(=O)(O)O)c(=O)n1 [CIDOFOVIR] | > 350 | – | > 200 | > 200 | > 200 | 0.57 | –
4 | Nc1nc2c(ncn2COC(CO)CO)c(=O)[nH]1 [GANCICLOVIR] | > 400 | – | > 200 | > 200 | > 200 | – | 0.06
5 | Cc1c(O)c(=O)ccn1[C@H]1CC[C@@H](CO)O1 | > 900 | 500 | 101 | > 50 | > 50 | 40 | > 900
6 | Nc1nc2c(ncn2COCCO)c(=O)[nH]1 [ACYCLOVIR] | > 1700 | 88 | > 200 | > 200 | > 200 | 0.32 | –
7 | Cc1c(O)c(=O)ccn1[C@@H]1CC[C@@H](CO)O1 | > 900 | 500 | > 50 | > 50 | > 50 | 177 | 500
